In ChEMBL document CHEMBL1143342, “Death receptor 5 targeting activity-guided isolation of isoflavones from Millettia brandisiana and Ardisia colorata and evaluation of ability to induce TRAIL-mediated apoptosis” (2009):
Activity calls are given as the source filed them. The calls are words filed in the database; no cut-off is given here.

What was measured:
DLD-1 = experiment: Induction of DR5 promoter activity in SacI gene expressing human DLD1 cells at 17.5 uM after 24 hrs by luminescence assay; format: functional
AGS [1] = experiment: Induction of apoptosis in TRAIL-resistant human AGS cells assessed as early apoptotic cells at 50 uM after 24 hrs using annexin-V-FITC/propidium iodide staining by flow cytometry; format: functional
AGS [2] = experiment: Induction of apoptosis in TRAIL-resistant human AGS cells assessed as late apoptotic cells at 60 uM after 24 hrs using annexin-V-FITC/propidium iodide staining by flow cytometry; format: functional
AGS [3] = experiment: Induction of apoptosis in TRAIL-resistant human AGS cells assessed as late apoptotic cells at 50 uM after 24 hrs using annexin-V-FITC/propidium iodide staining by flow cytometry; format: functional
AGS [4] = experiment: Sensitization of TRAIL-induced apoptosis in TRAIL-resistant human AGS cells assessed as accumulation at sub-G1 phase at 60 uM after 24 hrs using annexin-V-FITC/propidium iodide staining by flow cytometry in presence of DR5/Fc chimeric protein; format: functional, cell-based
AGS [5] = experiment: Induction of apoptosis in TRAIL-resistant human AGS cells assessed as early apoptotic cells at 60 uM after 24 hrs using annexin-V-FITC/propidium iodide staining by flow cytometry; format: functional
AGS [6] = experiment: Sensitization of TRAIL-induced apoptosis in TRAIL-resistant human AGS cells assessed as early apoptotic cells at 40 uM after 24 hrs using annexin-V-FITC/propidium iodide staining by flow cytometry; format: functional
AGS [7] = experiment: Induction of TRAIL-induced apoptosis in TRAIL-resistant human AGS cells assessed as increase in caspase 8 activity after 12 hrs by luminescence assay; format: functional, cell-based
AGS [8] = experiment: Sensitization of TRAIL-induced apoptosis in TRAIL-resistant human AGS cells assessed as late apoptotic cells at 50 uM after 24 hrs using annexin-V-FITC/propidium iodide staining by flow cytometry; format: functional
AGS [9] = experiment: Induction of apoptosis in TRAIL-resistant human AGS cells assessed as early apoptotic cells at 40 uM after 24 hrs using annexin-V-FITC/propidium iodide staining by flow cytometry; format: functional
AGS [10] = experiment: Sensitization of TRAIL-induced apoptosis in TRAIL-resistant human AGS cells assessed as early apoptotic cells at 50 uM after 24 hrs using annexin-V-FITC/propidium iodide staining by flow cytometry; format: functional
AGS [11] = experiment: Induction of DR5 mRNA expression in TRAIL-resistant human AGS cells by RT-PCR; format: functional, cell-based
AGS [12] = experiment: Sensitization of TRAIL-induced apoptosis in TRAIL-resistant human AGS cells assessed as late apoptotic cells at 60 uM after 24 hrs using annexin-V-FITC/propidium iodide staining assay; format: functional
AGS [13] = experiment: Induction of TRAIL-induced apoptosis in TRAIL-resistant human AGS cells assessed as increase in caspase 3/7 activity after 24 hrs by luminescence assay; format: functional, cell-based
AGS [14] = experiment: Induction of DR5 protein expression in TRAIL-resistant human AGS cells after 24 hrs by Western blot analysis; format: functional, cell-based
AGS [15] = experiment: Induction of apoptosis in TRAIL-resistant human AGS cells assessed as late apoptotic cells at 40 uM after 24 hrs using annexin-V-FITC/propidium iodide staining by flow cytometry; format: functional
AGS [16] = experiment: Sensitization of TRAIL-induced apoptosis in TRAIL-resistant human AGS cells assessed as early apoptotic cells at 60 uM after 24 hrs using annexin-V-FITC/propidium iodide staining by flow cytometry; format: functional
AGS [17] = experiment: Sensitization of TRAIL-induced apoptosis in TRAIL-resistant human AGS cells assessed as increase in DR5 expression; format: functional, cell-based
AGS [18] = experiment: Sensitization of TRAIL-induced apoptosis in TRAIL-resistant human AGS cells assessed as late apoptotic cells at 40 uM after 24 hrs using annexin-V-FITC/propidium iodide staining by flow cytometry; format: functional

SMILES: COc1ccc(-c2coc3cc(O)ccc3c2=O)c(O)c1 [XENOGNOSIN B]
- Activity (DLD-1): 2.5

SMILES: COc1cc(-c2coc3c4c(cc(O)c3c2=O)OC(C)(C)C=C4)c(OC)cc1O
- Activity (AGS [1]): 15.2%
- Activity (AGS [2]): 6.9%
- Activity (AGS [3]): 3.9%
- Activity (AGS [4]): inactive
- Activity (AGS [5]): 17.4%
- Activity (AGS [6]): 12.1%
- Activity (AGS [7]): Dose-dependent effect
- Activity (AGS [8]): 19.5%
- Activity (AGS [9]): 9.6%
- Activity (AGS [10]): 16.3%
- Activity (AGS [11]): Dose-dependent effect
- Activity (AGS [12]): 44.1%
- Activity (AGS [13]): Dose-dependent effect
- Activity (AGS [14]): Dose-dependent effect
- Activity (AGS [15]): 5.6%
- Activity (AGS [16]): 23.4%
- Activity (AGS [17]): Active
- Activity (AGS [18]): 12.9%
